How the values were obtained:
[1] = target: T1, Lysophosphatidic acid receptor 3 (Homo sapiens, UniProt Q9UBY5); test: In vitro antagonism of LPA-evoked [35S]GTP-gamma-S binding to lysophosphatidic acid receptor 3 in HEK293T cell lines; assay type: functional, cell-based, HEK-293T
T1 sequence (Q9UBY5 whole entry): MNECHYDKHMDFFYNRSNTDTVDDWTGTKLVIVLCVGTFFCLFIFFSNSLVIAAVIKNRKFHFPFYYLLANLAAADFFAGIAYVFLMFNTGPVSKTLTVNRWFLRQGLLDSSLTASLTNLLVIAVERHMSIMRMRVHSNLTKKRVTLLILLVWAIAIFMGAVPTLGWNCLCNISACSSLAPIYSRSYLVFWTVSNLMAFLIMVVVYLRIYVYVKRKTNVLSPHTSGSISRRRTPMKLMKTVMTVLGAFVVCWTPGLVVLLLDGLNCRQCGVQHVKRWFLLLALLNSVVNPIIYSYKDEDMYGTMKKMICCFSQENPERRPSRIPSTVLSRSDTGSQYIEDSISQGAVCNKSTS

[2] = target: Lysophosphatidic acid receptor 1 (Homo sapiens, UniProt Q92633); test: In vitro ability to antagonize LPA-evoked [35S]GTP-gamma-S binding to lysophosphatidic acid receptor 1 in HEK293T cell lines; assay type: functional, cell-based, HEK-293T
Sequence of Lysophosphatidic acid receptor 1 (Q92633 whole entry): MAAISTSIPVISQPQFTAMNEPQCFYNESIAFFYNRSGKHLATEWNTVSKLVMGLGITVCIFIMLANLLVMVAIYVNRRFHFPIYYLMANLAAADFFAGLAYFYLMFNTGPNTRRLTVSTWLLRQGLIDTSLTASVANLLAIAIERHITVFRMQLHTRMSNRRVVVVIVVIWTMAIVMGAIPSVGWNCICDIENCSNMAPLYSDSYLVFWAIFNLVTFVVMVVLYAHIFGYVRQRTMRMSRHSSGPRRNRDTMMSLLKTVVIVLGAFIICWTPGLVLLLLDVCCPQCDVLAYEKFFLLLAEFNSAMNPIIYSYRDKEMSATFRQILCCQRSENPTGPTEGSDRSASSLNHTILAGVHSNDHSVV

Compound | IC50 [1] [µM] | IC50 [2] [µM] | Ki [2] [µM]
CCCCCCCC/C=C\CCCCCCCC(=O)N[C@H](COP(=O)(O)O)Cc1ccc(OCCC(C)C)cc1 | 5.92 | > 10 | –
CCCCCCCC/C=C\CCCCCCCC(=O)N[C@H](COP(=O)(O)O)Cc1ccc(OCc2ccccc2)cc1 | > 10 | > 10 | –
CCCCCCCCCCCCCC(=O)NC(COP(=O)(O)O)Cc1ccc(OCc2ccccc2)cc1 (stereo not drawn) | > 10 | 9.03 | –
CCCCCCCC/C=C\CCCCCCCC(=O)N[C@H](COP(=O)(O)O)Cc1ccc(Oc2cc3ccccc3[nH]2)cc1 | 9.26 | > 10 | –
C#CCCCCOc1ccc(C[C@H](COP(=O)(O)O)NC(=O)CCCCCCC/C=C\CCCCCCCC)cc1 | 3.28 | > 10 | –
CCCCCCCC/C=C\CCCCCCCC(=O)N[C@H](COP(=O)(O)O)Cc1ccc(OC(=O)c2ccc(N)cc2)cc1 | > 10 | > 10 | –
C#CCOc1ccc(C[C@@H](COP(=O)(O)O)NC(=O)CCCCCCC/C=C\CCCCCCCC)cc1 | > 10 | > 10 | –
CCCCCCCC/C=C\CCCCCCCC(=O)N[C@@H](COP(=O)(O)O)Cc1ccc(OCc2ccccc2)cc1 | > 10 | 2.49 | –
CCCCCCCC/C=C\CCCCCCCC(=O)NC(COP(=O)(O)O)Cc1ccc(OCc2ccccc2)cc1 (stereo not drawn) | 6.45 | 5.21 | 0.137
CCCCCCCC/C=C\CCCCCCCC(=O)N[C@H](COP(=O)(O)O)Cc1ccc(OC(=O)c2ccc(CCCCC)cc2)cc1 | > 10 | > 10 | –
CCCCCCCC/C=C\CCCCCCCC(=O)N[C@H](COP(=O)(O)O)Cc1ccc(OCc2cccc(OC)c2)cc1 | 0.642 | 5.66 | 0.642
CCCCCCCCCCCCCCCC(=O)NC(COP(=O)(O)O)Cc1ccc(OCc2cccc(OC)c2)cc1 (stereo not drawn) | 7.22 | > 10 | –
CCCCCCCC/C=C\CCCCCCCC(=O)N[C@@H](COP(=O)(O)O)Cc1ccc(OCCC(C)C)cc1 | 0.351 | > 10 | –
CCCCCCCC(=O)NC(COP(=O)(O)O)Cc1ccc(OCc2ccccc2)cc1 (stereo not drawn) | > 10 | 7.97 | –
CCCCCCCC/C=C\CCCCCCCC(=O)N[C@@H](COP(=O)(O)O)Cc1ccc(OCc2cccc(OC)c2)cc1 | 0.0356 | 1.07 | 0.034
C=CCOc1ccc(C[C@@H](COP(=O)(O)O)NC(=O)CCCCCCC/C=C\CCCCCCCC)cc1 | > 10 | > 10 | –
CCCCCCCCCCCCCCCCCC(=O)N[C@@H](COP(=O)(O)O)Cc1ccc(OC2O[C@H](CO)[C@@H](O)[C@H](O)[C@H]2O)cc1 (stereo partly drawn) | > 10 | > 10 | –

More lines, now with the values ahead:

IC50 [1] [µM] | IC50 [2] [µM] | Ki [2] [µM] | Compound
6.41 | > 10 | – | CCCCCCCC/C=C\CCCCCCCC(=O)N[C@@H](COP(=O)(O)O)Cc1ccc(OCC)cc1
6.93 | > 10 | – | CCCCCCCC/C=C\CCCCCCCC(=O)N[C@H](COP(=O)(O)O)Cc1ccc(OCC)cc1
0.175 | 0.109 | 0.018 | CCCCCCCC/C=C\CCCCCCCC(=O)N[C@@H](COP(=O)(O)O)Cc1ccc(OCc2ccccn2)cc1
2.63 | 7 | 0.073 | CCCCCCCC/C=C\CCCCCCCC(=O)N[C@@H](COP(=O)(O)O)Cc1ccc(Oc2cc3ccccc3[nH]2)cc1
4.03 | > 10 | – | CCCCCCCC/C=C\CCCCCCCC(=O)N[C@@H](COP(=O)(O)O)Cc1ccc(OCC2CCCCC2)cc1
> 10 | > 10 | – | CCCCCCCC/C=C\CCCCCCCC(=O)N[C@@H](COP(=O)(O)O)Cc1ccc(OC)cc1
0.427 | > 10 | – | CCCCCCCC/C=C\CCCCCCCC(=O)N[C@@H](COP(=O)(O)O)Cc1ccc(OC(=O)c2cc(OC)c(OC)c(OC)c2)cc1
6.84 | > 10 | – | CCCCCCCCCCCCCCCC(=O)NC(COP(=O)(O)O)Cc1ccc(OCc2ccccc2)cc1 (stereo not drawn)
> 10 | 4.25 | – | CCCCC/C=C\C/C=C\CCCCCCCC(=O)NC(COP(=O)(O)O)Cc1ccc(OCc2ccccc2)cc1 (stereo not drawn)
2.31 | 2.93 | 0.134 | CCCCCCCC/C=C\CCCCCCCC(=O)N[C@@H](COP(=O)(O)O)Cc1ccc(OC2Cc3ccccc3C2)cc1
0.94 | 0.604 | 0.156 | CCCCCCCC/C=C\CCCCCCCC(=O)N[C@H](COP(=O)(O)O)Cc1ccc(OCc2ccccn2)cc1

Reference: ChEMBL document CHEMBL1137927, “Initial structure-activity relationships of lysophosphatidic acid receptor antagonists: discovery of a high-affinity LPA1/LPA3 receptor antagonist” (Bioorg Med Chem Lett, 2004)
